Laboratory results reported in patent US20210038503A1, “COMPOSITIONS AND METHODS FOR TOPICAL TREATMENT OF DERMAL AND OCULAR CONDITIONS” (GABADERM, INC., priority 2018, published 2021).
Entries after “also recorded” stand apart in the source; their conditions may differ. Like-named read-outs stand apart in the source and are kept apart here.

Tests used:
[1] = Experimental: Stability was determined visually by separation of the emulsion and also analytically by changes in measured concentration of the cream and/or the formation of degradation products. […] Heavier oils include petrolatum or mineral oil.
[2] = in vivo; cited from earlier work
Remark: listed apart in the source
[3] = in vivo; cited from earlier work; remark: listed apart in the source
oxalobenzone treated ear = test: Oxalobenzone induced mouse ear inflammatory model (ear thickness); format: in vivo; conditions: for Inflammation (ear thickness): 100 μl at 1 hour and 6 hours post challenge, 24 hours and 48 hours
Experimental: Animals were sensitized to oxalbenzone on the abdomen on day 2 with 150 μl 3% oxalbenzone. Animals were challenged on day 5 with 1% oxalobenzone to both sides of one ear. This served as an in vivo pharmacological disease models for psoriasis and atopic dermatitis.
Ear thickness was measured with calipers at 24 hours and 48 hours and compared to contralateral non-challenged ear. Ear thickness served as an indication of swelling due to inflammation. The greater the ear thickness, the greater the inflammation.

[4] = estimated 250 times lower than rat plasma levels
psoriatic lesions = conditions: for Number of psoriatic lesions: 2% propofol solution twice daily
From the text: Areas of the lesion are roughly outlined.
The plaque psoriatic lesion was raised and more lightly colored than the unaffected skin.

[5] = 20% propofol-propylene glycol plus 30% w/w surfactant penetration enhancer
[6] = 20% w/w propofol in propylene glycol
[7] = local administration of propofol

CC(C)c1cccc(C(C)C)c1O [propofol]
Stability ([1]; oil-in-water or water-in-oil formulations with a heavier oil or longer chain oil (petrolatum or mineral oil)): stable
Stability ([1]; penetration enhancer limited to less than 10% w/w, particularly propofol greater than 2%): stable
Stability ([1]; propofol >10% w/w in HRT™ (gel or cream)): not stable
Stability ([1]; propofol >10% w/w in Lipoderm®): not stable
Stability ([1]; propofol >10% w/w in Medihol™ gel base): not stable
Stability ([1]; propofol >10% w/w in Vanish-Pen™ Cream base): not stable
Stability ([1]; propofol >10% w/w in VersaPro™ (lotion or cream)): not stable
Stability ([1]; propofol at 10% w/w in Lipoderm® (mineral oil-free)): not stable
Oral bioavailability [2]: < 10%
Increase of plasma concentration [5]: 3 to 5 fold
Plasma concentration [5]: approximately 350 ng/ml
Increase of plasma concentration [6]: 2-3 fold
Plasma concentration [6]: 175 to 200 ng/mL
Plasma concentration (rats, 500 mg of 100% propofol on skin, ~[…] body surface area): 400 ng/mL
Plasma levels (rats, 20% w/w propofol in petrolatum (100 mg total dose), ~[…] body surface area): 50 to 100 ng/mL
Plasma levels at which wakening from propofol anesthesia occurs [3]: less than 500 μg/ml
Plasma steady state levels used to maintain anesthetized state [3]: 1,000-2,000 ng/ml
Inflammation (ear thickness) (oxalobenzone treated ear; 10% w/w propofol in DMSO): significantly reduces inflammation
Inflammation (ear thickness) (oxalobenzone treated ear; 20% w/w propofol in DMSO): significantly reduces inflammation
Skin inflammation / ear swelling (oxalobenzone treated ear; topical propofol, formulation not specified at the place): reduces skin inflammation; also recorded: reduces ear swelling and inflammation
Human equivalent plasma concentration [4]: 0.4 to 2 ng/mL
Number of psoriatic lesions (psoriatic lesions; after a week): further reduced
Number of psoriatic lesions (psoriatic lesions; after three days): reduced
Plaque psoriatic lesion height and area, left forearm (psoriatic lesions; 10% propofol in cream twice daily, over the course of treatment): diminished in height and area
Local anti-inflammatory effect (psoriatic lesions; [7]): anti-inflammatory effects locally
Sustained anti-nociceptive effect (psoriatic lesions; [7]): reduced sensation of itch and burning
Psoriatic lesions (FIG. 7 legend) (psoriatic lesions; propofol in a cream based formulation): reduced
Neurogenic inflammation (psoriatic lesions; repeated application of propofol): less neurogenic inflammation
Gutate and plaque psoriatic lesions (psoriatic lesions; topical application of propofol, summary): resolution of gutate and plaque psoriatic lesions
Acute skin reaction (redness with wheal-flare effect) (skin; 10% propofol in DMSO): significant burning and inflammation
Time to onset of burning and inflammation after treatment (skin; 10% propofol in DMSO): 10 to 15 min
Time until acute effect resolved (skin; 10% propofol in DMSO): about 90 minutes
Treatment effect despite initial inflammatory response (skin; 10% propofol in DMSO): significant treatment effect
Acute skin reaction (redness with wheal-flare effect) (skin; 10% propofol in mineral oil containing cream): did not result in this effect
